Source: ChEMBL document CHEMBL1201862, “PubChem BioAssay data set” (2004)
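A five-concentration, 48-hour dose response in 96-well plates underlies each endpoint, interpolated linearly between surrounding concentrations. GI50 marks 50% less growth.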 Active and inactive are the calls of the source. Cut-off read from the data, not from the text of the source: active = GI50 up to about 1.1 µM and inactive = higher.

Columns and labels:
Test in all cases: NCI-60 cell line screen, 48 h
[1] = system: 786-0
[2] = system: A549
[3] = system: CCRF-CEM
[4] = system: HOP-62
[5] = system: HOP-92
[6] = system: HT-29
[7] = system: MDA-MB-435
[8] = system: MOLT-4
[9] = system: NCI-H226
[10] = system: NCI-H460
[11] = system: OVCAR-3
[12] = system: OVCAR-5
[13] = system: RPMI-8226
[14] = system: RXF 393
[15] = system: SK-MEL-28
[16] = system: SR
[17] = system: SW-620
[18] = system: UACC-257
[19] = system: UO-31

Compound: CC1(C)CCCC2CC2CCC(C)(C)C1=O (centres undefined)
- GI50 [1]: 28.8 µM (inactive)
- GI50 [2]: 42.4 µM (inactive)
- GI50 [3]: 15.7 µM (inactive)
- GI50 [4]: > 100 µM (inactive)
- GI50 [5]: 74.8 µM (inactive)
- GI50 [6]: 44.7 µM (inactive)
- GI50 [7]: 39.5 µM (inactive)
- GI50 [8]: 29.2 µM (inactive)
- GI50 [9]: 43.8 µM (inactive)
- GI50 [10]: 34.8 µM (inactive)
- GI50 [11]: 25.5 µM (inactive)
- GI50 [12]: 46.5 µM (inactive)
- GI50 [13]: 25.2 µM (inactive)
- GI50 [14]: 27.4 µM (inactive)
- GI50 [15]: > 100 µM (inactive)
- GI50 [16]: 10.8 µM (inactive)
- GI50 [17]: > 100 µM (inactive)
- GI50 [18]: 39.5 µM (inactive)
- GI50 [19]: > 100 µM (inactive)

Compound: O/N=C1\SC(=N\O)/C(=N/O)S\C1=N/O
- GI50 [1]: > 100 µM (inactive)
- GI50 [2]: > 100 µM (inactive)
- GI50 [3]: > 100 µM (inactive)
- GI50 [4]: > 100 µM (inactive)
- GI50 [5]: > 100 µM (inactive)
- GI50 [6]: > 100 µM (inactive)
- GI50 [7]: > 100 µM (inactive)
- GI50 [8]: > 100 µM (inactive)
- GI50 [9]: > 100 µM (inactive)
- GI50 [10]: > 100 µM (inactive)
- GI50 [11]: > 100 µM (inactive)
- GI50 [12]: > 100 µM (inactive)
- GI50 [13]: 83.2 µM (inactive)
- GI50 [14]: > 100 µM (inactive)
- GI50 [15]: > 100 µM (inactive)
- GI50 [16]: 38.2 µM (inactive)
- GI50 [17]: > 100 µM (inactive)
- GI50 [18]: > 100 µM (inactive)
- GI50 [19]: 87.5 µM (inactive)

Compound: CC(C)CCC1(O)O[C@H]2C[C@H]3[C@@H]4CCC5CC(=O)C=C[C@]5(C)[C@H]4CC[C@]3(C)[C@H]2[C@@H]1C (some centres undefined)
- GI50 [1]: 12.3 µM (inactive)
- GI50 [2]: 14.7 µM (inactive)
- GI50 [3]: 3.18 µM (inactive)
- GI50 [4]: 15 µM (inactive)
- GI50 [5]: 3.58 µM (inactive)
- GI50 [6]: 7.64 µM (inactive)
- GI50 [7]: 11.6 µM (inactive)
- GI50 [8]: 2.56 µM (inactive)
- GI50 [9]: 0.612 µM (active)
- GI50 [10]: 10.3 µM (inactive)
- GI50 [11]: 10.8 µM (inactive)
- GI50 [12]: 13.1 µM (inactive)
- GI50 [13]: 4.88 µM (inactive)
- GI50 [14]: 11.8 µM (inactive)
- GI50 [15]: 11.5 µM (inactive)
- GI50 [16]: 8.36 µM (inactive)
- GI50 [17]: 12.1 µM (inactive)
- GI50 [18]: 15 µM (inactive)
- GI50 [19]: 16.6 µM (inactive)

Compound: COC(=O)c1ccc2c(O)c(O)ccc2c1
- GI50 [1]: 15.6 µM (inactive)
- GI50 [2]: 22.2 µM (inactive)
- GI50 [3]: 2.69 µM (inactive)
- GI50 [4]: 18.9 µM (inactive)
- GI50 [5]: 18.4 µM (inactive)
- GI50 [6]: 17.1 µM (inactive)
- GI50 [7]: 1.87 µM (inactive)
- GI50 [8]: 4.81 µM (inactive)
- GI50 [9]: 23.1 µM (inactive)
- GI50 [10]: 19.9 µM (inactive)
- GI50 [11]: 7 µM (inactive)
- GI50 [12]: 19.2 µM (inactive)
- GI50 [13]: 14.7 µM (inactive)
- GI50 [14]: 17.6 µM (inactive)
- GI50 [15]: 16.3 µM (inactive)
- GI50 [16]: 2.6 µM (inactive)
- GI50 [17]: 12.1 µM (inactive)
- GI50 [18]: 14.9 µM (inactive)
- GI50 [19]: 20.7 µM (inactive)

Compound: CSc1c(C#N)c(O)nc(N)c1C(=O)Nc1ccc(Cl)cc1
- GI50 [1]: 7.36 µM (inactive)
- GI50 [2]: 13.4 µM (inactive)
- GI50 [3]: 30.3 µM (inactive)
- GI50 [4]: 16 µM (inactive)
- GI50 [5]: 21.7 µM (inactive)
- GI50 [6]: 22.2 µM (inactive)
- GI50 [7]: 3.55 µM (inactive)
- GI50 [8]: 18.8 µM (inactive)
- GI50 [9]: 28 µM (inactive)
- GI50 [10]: 6.32 µM (inactive)
- GI50 [11]: 14.9 µM (inactive)
- GI50 [12]: 33 µM (inactive)
- GI50 [13]: 11.2 µM (inactive)
- GI50 [14]: 23.6 µM (inactive)
- GI50 [15]: 14.7 µM (inactive)
- GI50 [16]: > 69.2 µM (inactive)
- GI50 [17]: 5.65 µM (inactive)
- GI50 [18]: 6.78 µM (inactive)
- GI50 [19]: 11.2 µM (inactive)

Compound: CC(C)n1c(=O)[nH]n(-c2ccccc2)c1=O
- GI50 [1]: > 100 µM (inactive)
- GI50 [2]: > 100 µM (inactive)
- GI50 [3]: > 100 µM (inactive)
- GI50 [4]: > 100 µM (inactive)
- GI50 [5]: > 100 µM (inactive)
- GI50 [6]: > 100 µM (inactive)
- GI50 [7]: > 100 µM (inactive)
- GI50 [8]: > 100 µM (inactive)
- GI50 [9]: > 100 µM (inactive)
- GI50 [10]: > 100 µM (inactive)
- GI50 [11]: > 100 µM (inactive)
- GI50 [12]: > 100 µM (inactive)
- GI50 [13]: > 100 µM (inactive)
- GI50 [14]: > 100 µM (inactive)
- GI50 [15]: > 100 µM (inactive)
- GI50 [16]: > 100 µM (inactive)
- GI50 [17]: > 100 µM (inactive)
- GI50 [18]: > 100 µM (inactive)
- GI50 [19]: > 100 µM (inactive)

Compound: CC(=O)Nc1ccc(CNc2cc(=O)[nH]c(=O)[nH]2)cc1
- GI50 [1]: > 100 µM (inactive)
- GI50 [2]: > 100 µM (inactive)
- GI50 [3]: > 100 µM (inactive)
- GI50 [4]: > 100 µM (inactive)
- GI50 [5]: > 100 µM (inactive)
- GI50 [6]: > 100 µM (inactive)
- GI50 [7]: > 100 µM (inactive)
- GI50 [8]: > 100 µM (inactive)
- GI50 [9]: > 100 µM (inactive)
- GI50 [10]: > 100 µM (inactive)
- GI50 [11]: > 100 µM (inactive)
- GI50 [12]: > 100 µM (inactive)
- GI50 [13]: > 100 µM (inactive)
- GI50 [14]: > 100 µM (inactive)
- GI50 [15]: > 100 µM (inactive)
- GI50 [16]: > 100 µM (inactive)
- GI50 [17]: > 100 µM (inactive)
- GI50 [18]: > 100 µM (inactive)
- GI50 [19]: > 100 µM (inactive)

Compound: Cc1ccc(NC(=O)C(=O)CC(=O)c2sc(Nc3c(C)cccc3C)nc2C)cc1C
- GI50 [1]: > 100 µM (inactive)
- GI50 [2]: > 100 µM (inactive)
- GI50 [3]: > 100 µM (inactive)
- GI50 [4]: > 100 µM (inactive)
- GI50 [5]: > 100 µM (inactive)
- GI50 [6]: > 100 µM (inactive)
- GI50 [7]: > 100 µM (inactive)
- GI50 [8]: > 100 µM (inactive)
- GI50 [9]: > 100 µM (inactive)
- GI50 [10]: > 100 µM (inactive)
- GI50 [11]: > 100 µM (inactive)
- GI50 [12]: > 100 µM (inactive)
- GI50 [13]: > 100 µM (inactive)
- GI50 [14]: > 100 µM (inactive)
- GI50 [15]: > 100 µM (inactive)
- GI50 [16]: 37.3 µM (inactive)
- GI50 [17]: > 100 µM (inactive)
- GI50 [18]: > 100 µM (inactive)
- GI50 [19]: 81.8 µM (inactive)

Compound: CCOC(=O)C(NC(=O)CC)(Nc1ccc(F)c(Cl)c1)C(F)(F)F (centres undefined)
- GI50 [1]: > 100 µM (inactive)
- GI50 [2]: > 100 µM (inactive)
- GI50 [3]: 35.6 µM (inactive)
- GI50 [4]: > 100 µM (inactive)
- GI50 [5]: > 100 µM (inactive)
- GI50 [6]: > 100 µM (inactive)
- GI50 [7]: > 92.9 µM (inactive)
- GI50 [8]: > 74.8 µM (inactive)
- GI50 [9]: > 100 µM (inactive)
- GI50 [10]: > 100 µM (inactive)
- GI50 [11]: > 100 µM (inactive)
- GI50 [12]: > 100 µM (inactive)
- GI50 [13]: > 63.2 µM (inactive)
- GI50 [14]: > 100 µM (inactive)
- GI50 [15]: > 100 µM (inactive)
- GI50 [16]: > 45.6 µM (inactive)
- GI50 [17]: > 100 µM (inactive)
- GI50 [18]: > 100 µM (inactive)
- GI50 [19]: > 100 µM (inactive)

Compound: O=C(O)CCCSc1ccccc1
- GI50 [1]: > 100 µM (inactive)
- GI50 [2]: > 100 µM (inactive)
- GI50 [3]: > 100 µM (inactive)
- GI50 [4]: > 100 µM (inactive)
- GI50 [5]: > 100 µM (inactive)
- GI50 [6]: > 100 µM (inactive)
- GI50 [7]: > 100 µM (inactive)
- GI50 [8]: > 100 µM (inactive)
- GI50 [9]: > 100 µM (inactive)
- GI50 [10]: > 100 µM (inactive)
- GI50 [11]: > 100 µM (inactive)
- GI50 [12]: > 100 µM (inactive)
- GI50 [13]: > 100 µM (inactive)
- GI50 [14]: > 100 µM (inactive)
- GI50 [15]: > 100 µM (inactive)
- GI50 [16]: > 100 µM (inactive)
- GI50 [17]: > 100 µM (inactive)
- GI50 [18]: > 100 µM (inactive)
- GI50 [19]: > 100 µM (inactive)

Compound: COc1cc(C2c3cccc4cccc(c34)C3CCC(=O)N32)cc(O)c1O (centres undefined)
- GI50 [1]: 44.2 µM (inactive)
- GI50 [2]: 31.2 µM (inactive)
- GI50 [3]: 10.9 µM (inactive)
- GI50 [4]: 47.1 µM (inactive)
- GI50 [5]: > 50 µM (inactive)
- GI50 [6]: 48.1 µM (inactive)
- GI50 [7]: 19.2 µM (inactive)
- GI50 [8]: 12.7 µM (inactive)
- GI50 [9]: > 50 µM (inactive)
- GI50 [10]: 36.5 µM (inactive)
- GI50 [11]: 18.1 µM (inactive)
- GI50 [12]: > 50 µM (inactive)
- GI50 [13]: 11.5 µM (inactive)
- GI50 [14]: > 50 µM (inactive)
- GI50 [15]: 33.5 µM (inactive)
- GI50 [16]: 9.71 µM (inactive)
- GI50 [17]: 28.6 µM (inactive)
- GI50 [18]: 24.7 µM (inactive)
- GI50 [19]: 28.8 µM (inactive)
